This passage reports IC50 results from US9546153B2, “Bicyclic heterocycle substituted pyridyl compounds useful as kinase modulators” (BRISTOL-MYERS SQUIBB COMPANY, priority 2012, dated 2017).

pIC50: −log10 of the molar value.

For the first assay, the system named is TLR2 induced IL-6 in peripheral blood mononuclear cells (PBMCs). The assay is described as follows: PBMC TLR2 Induced IL-6 Assay. Type of assay: cell-based, human. Particulars: Homo sapiens, PBMC, 5 h, human PBMCs, 10 μg/ml lipoteichoic acid for 5 hours, IL-6 by ELISA; value without asterisk; read-out: Cell IC50. How it is done:
Peripheral blood mononuclear cells (PBMCs) were isolated from human blood containing the anti-coagulant EDTA (2.5 mM) by centrifugation over a FICOLL® gradient. PBMCs (250000 cells/well) were cultured in assay media (RPMI with 10% heat inactivated FCS) with compounds for 30 minutes at 37° C. in a 5% CO2 incubator. Following pretreatment with compounds, cells were stimulated for 5 hours with 10 μg/ml lipoteichoic acid (Invivogen, San Diego, Calif.), a TLR2 agonist. At the end of the culture, plates were centrifuged at 1800 rpm for 10 minutes to pellet the cells. Supernatants were harvested and analyzed for IL-6 levels by ELISA (BD Biosciences, San Jose, Calif.). Inhibition was calculated as either an IC50 or EC50. EC50 determinations are indicated with an asterisk.
Take `CC(C)CCNc1cc(Nc2ccc3ncsc3c2)ncc1C(=O)NC[C@@H](F)C(C)(C)O` [Example 163]: the negative logarithm of the IC50 (pIC50) (commonly −log10 of the IC50, conventionally taken in molar units) was 6.64. As for `CC(C)Nc1cc(Nc2ccc3nscc3c2)ncc1C(=O)NC[C@@H](F)C(C)(C)O` [Example 56], the pIC50 is 6.48. Still for that read-out and setting: as for `O=C(NC[C@@H](F)CO)c1cnc(Nc2ccc3ncsc3c2)cc1NC1CC1` [Example 7], the figure is 6.14. For `CC(C)(O)[C@H](F)CNC(=O)c1cnc(Nc2ccc3ncsc3c2)cc1NCC1CC1` [Example 62], the pIC50 was 6.54. The same measure, in the same setting: as for `CC(C)Nc1cc(Nc2ccc3[nH]c(=O)sc3c2)ncc1C(=O)NC[C@@H](F)C(C)(C)O` [Example 40], the figure is 6.30. `N#CCNC(=O)c1cnc(Nc2ccc3ncsc3c2)cc1NC1CCCC1` [Example 153]: the pIC50 is 6.29. Take `CC(C)(O)[C@H](F)CNC(=O)c1cnc(Nc2ccc3ncsc3c2)cc1NCC(F)(F)F` [Example 84]: the pIC50 was 6.30.

Consider `CC(C)Nc1cc(Nc2ccc3ncccc3c2)ncc1C(=O)NC[C@@H](F)C(C)(C)O` [Example 47], for which the pIC50 was 6.24. With `CCNc1cc(Nc2ccn3nccc3n2)ncc1C(=O)NC[C@@H](F)C(C)(C)O` [Example 239], the pIC50 was 6.42. Same read-out and setting: as for `Cc1cnc2ccc(Nc3cc(NC4CC4)c(C(=O)NC[C@@H](F)C(C)(C)O)cn3)nn12` [Example 276], the figure is 6.59.

As for `CC(C)(O)CCNC(=O)c1cnc(Nc2ccc3ncsc3c2)cc1N[C@H]1CC[C@@H](F)CC1` [Example 174], the pIC50 was 6.82. Take `CC(C)(O)[C@H](F)CNC(=O)c1cnc(Nc2nc3ccnn3cc2F)cc1N[C@H]1CCC[C@@H]1O` [Example 466]: the pIC50 was 6.67. Take `CC(C)(O)[C@H](F)CNC(=O)c1cnc(Nc2ccc3ccncc3c2)cc1NC1CC1` [Example 132]: the pIC50 was 6.46.

Take `CC(C)(O)[C@H](F)CNC(=O)c1cnc(Nc2ccc3ncsc3c2)cc1NC1CCC1` [Example 46]: the pIC50 is 6.74.

Consider `CC(C)Nc1cc(Nc2ccc3ncsc3c2)ncc1C(=O)NCC[C@@H](C)NC(=O)N1CCOCC1` [Example 182], for which the pIC50 was 6.29. For the molecule `CC(C)Nc1cc(Nc2ccc3ncsc3c2)ncc1C(=O)NC[C@@H](F)C(O)(C1CC1)C(F)(F)F` (stereo partly shown) [Example 30], the pIC50 was 6.64. Turning to `CC(C)(O)[C@H](F)CNC(=O)c1cnc(Nc2ccc3[nH]c(=O)sc3c2)cc1NC1CCCC1` [Example 34], the negative logarithm of the IC50 (pIC50) was 6.82. Same read-out and setting: as for `CC(C)(O)[C@H](F)CNC(=O)c1cnc(Nc2ccc3ncsc3c2)cc1N[C@@H](c1cc(Cl)cc(Cl)c1)[C@H](O)CO` [Example 77], the figure is 6.42. Regarding `CC(C)(O)[C@H](F)CNC(=O)c1cnc(Nc2ccc3ncncc3c2)cc1NC1CC1` [Example 81], the pIC50 is 7.00. As for `CC(C)Nc1cc(Nc2ccc3[nH]c(=O)oc3c2)ncc1C(=O)NC[C@@H](F)C(C)(C)O` [Example 393], the pIC50 was 6.41. On to `CC(C)(O)[C@H](F)CNC(=O)c1cnc(Nc2ccc3ncsc3c2)cc1NC1CCCC1O` (stereo partly shown) [Example 335], for which the pIC50 was 6.87.

For the molecule `CC(C)(O)[C@H](F)CNC(=O)c1cnc(Nc2ccn3nccc3n2)cc1NC1CCC1` [Example 241], the pIC50 was 6.29.

Turning to `CC(C)(O)[C@H](F)CNC(=O)c1cnc(Nc2ccc3ncsc3c2)cc1N[C@@H](c1cccc(F)c1)[C@H](O)CO` [Example 44], the pIC50 is 6.16. As for `CC(C)(O)[C@H](F)CNC(=O)c1cnc(Nc2ccc3nonc3c2)cc1NC1CCOCC1` [Example 99], the pIC50 is 6.59.

`CC(C)(O)[C@H](F)CNC(=O)c1cnc(Nc2ccc3ncoc3c2)cc1N[C@@H]1CCC[C@H]1O` [Example 336]: the pIC50 was 6.33. Same read-out and setting: then `CC(C)Nc1cc(Nc2ncc3ncccc3n2)ncc1C(=O)NC[C@@H](F)C(C)(C)O` [Example 370], with 6.24; and `CC(C)(O)[C@H](F)CNC(=O)c1cnc(Nc2ccn3nccc3n2)cc1NCC(F)(F)F` [Example 238], with 6.23. As for `CC(C)Nc1cc(Nc2ccc3ncsc3c2)ncc1C(=O)N[C@H]1CCN(S(C)(=O)=O)C1` [Example 215], the pIC50 was 6.25. In the case of `CC(C)(O)[C@H](F)CNC(=O)c1cnc(Nc2nc3ccnn3cc2F)cc1NC1CC1` [Example 269], the pIC50 was 6.35.

The same assay, now with this note: Homo sapiens, PBMC, 5 h, read-out: Cell IC50.
On to `CNC(=O)c1cnc(Nc2ccc3ncsc3c2)cc1N[C@H](CO)c1ccccc1` [Example 145], for which the pIC50 was 6.59. On the same count and under the same terms, then `CNC(=O)c1cnc(Nc2ccc3ncsc3c2)cc1N[C@@H](c1ccccc1)[C@H](O)CO` [Example 143], with 6.53.

Staying with this assay, now noted: human PBMCs, 10 μg/ml lipoteichoic acid for 5 hours, IL-6 by ELISA; value without asterisk; read-out: Cell IC50.
Regarding `CC(C)(O)[C@H](F)CNC(=O)c1cnc(Nc2ccc3ncccc3n2)cc1NC1CCCOC1` (stereo partly shown) [Example 431], the pIC50 was 6.66. On to `CC(O)([C@H](F)CNC(=O)c1cnc(Nc2ccc3ncsc3c2)cc1NC1CCCC1F)C(F)(F)F` (stereo in doubt) [Example 342], for which the pIC50 was 7.15. The same measure, in the same setting: then `CC(C)(O)[C@H](F)CNC(=O)c1cnc(Nc2ccn3nccc3n2)cc1NC1CCC(F)(F)C1` (stereo partly shown) [Example 258], with 6.36; and `CC(C)(O)[C@H](F)CNC(=O)c1cnc(Nc2ccc3ncsc3c2)cc1NCC1CCCC1F` (stereo partly shown) [Example 117], with 6.44. Regarding `CC(C)(O)[C@H](F)CNC(=O)c1cnc(Nc2ccn3nccc3n2)cc1NC1CCC(F)(F)C1` (stereo partly shown) [Example 259], the pIC50 is 6.88. Regarding `CC(C)(O)[C@H](F)CNC(=O)c1cnc(Nc2ccc3ncccc3n2)cc1NC1CCCOC1` (stereo partly shown) [Example 432], the negative-log IC50 (pIC50) was 6.30. On to `CC(C)Nc1cc(Nc2ccc3ncsc3c2)ncc1C(=O)NC[C@@H](F)C(O)(C1CC1)C(F)(F)F` (stereo partly shown) [Example 31], for which the pIC50 was 6.60.

Consider `CC(C)(O)[C@H](F)CNC(=O)c1cnc(Nc2ccn3nccc3n2)cc1NC1CCOCC1F` (stereo partly shown) [Example 270], for which the pIC50 is 6.58. On to `CC(C)(O)[C@H](F)CNC(=O)c1cnc(Nc2ccn3nccc3n2)cc1NC1CCC(F)(F)C1` (stereo partly shown) [Example 242], for which the pIC50 was 6.75.

Take `CC(C)(O)[C@H](F)CNC(=O)c1cnc(Nc2ccc3ncsc3c2)cc1NCC1CCCC1O` (stereo partly shown) [Example 114]: the pIC50 is 6.31. Same read-out and setting: as for `CC(O)([C@H](F)CNC(=O)c1cnc(Nc2ccc3ncsc3c2)cc1NC1CCCC1F)C(F)(F)F` (stereo in doubt) [Example 339], the figure is 6.34; as for `CC(O)([C@H](F)CNC(=O)c1cnc(Nc2ccc3ncsc3c2)cc1NC1CCCC1F)C(F)(F)F` (stereo in doubt) [Example 341], 7.01; as for `CC(C)(O)[C@H](F)CNC(=O)c1cnc(Nc2ccn3nccc3n2)cc1NC1CCOCC1F` (stereo partly shown) [Example 249], 6.26. Take `CC(O)([C@H](F)CNC(=O)c1cnc(Nc2ccc3ncsc3c2)cc1NC1CCCC1F)C(F)(F)F` (stereo in doubt) [Example 340]: the pIC50 was 6.38. As for `CC(C)(O)[C@H](F)CNC(=O)c1cnc(Nc2ccn3nccc3n2)cc1NC1CCOCC1F` (stereo partly shown) [Example 271], the negative logarithm of the IC50 (pIC50) was 6.89. For the molecule `CC(C)(O)[C@H](F)CNC(=O)c1cnc(Nc2ccc3ncsc3c2)cc1NCC1CCCC1F` (stereo partly shown) [Example 118], the pIC50 was 6.96.

`Cc1cc2nc(Nc3cc(NC4CCC(F)C4)c(C(=O)NC[C@@H](F)C(C)(C)O)cn3)ccn2n1` (stereo partly shown) [Example 380]: the negative-log IC50 (pIC50) was 6.33. For the molecule `CC(C)(O)[C@H](F)CNC(=O)c1cnc(Nc2ccc3ncsc3n2)cc1NC1CCOCC1F` (stereo partly shown) [Example 418], the pIC50 was 7.52.
